Article PMC9495826, “Membranolytic Mechanism of Amphiphilic Antimicrobial β-Stranded [KL]n Peptides” (Biomedicines, 2022)
Where two headings read alike, the source gives them in different places. No end group written: not given here.

Legend:
[1] = tested on: Enterobacter helveticus (DSM 18390); type: cell-based
Description: (§1) The antimicrobial activity of the KL peptides was determined with a MIC assay. Peptide activity was tested against Gram-negative Escherichia coli (DSM 1116) and Enterobacter helveticus (DSM 18390) and against Gram-positive Bacillus subtilis (DSM 347) and Staphylococcus xylosus (DSM 20287) as previously reported. Our standard MIC assay was modified to avoid unnecessary exposure of peptides to the phosphate-containing growth medium, which was previously found to affect the results due to phosphate-induced aggregation of peptides. Details can be found in the Supplementary Materials.
(§2) The activity of KL and LK peptides against bacteria was examined using a MIC assay. […] We have previously shown that KL peptides, especially the longer ones, aggregate vigorously in the presence of phosphate ions. […] Therefore, here we used a modified MIC assay that was developed in our previous study, as described in the Methods section. In this approach, a two-fold dilution series was first prepared with peptides dissolved in water, and only thereafter were the bacteria in the medium added so that the peptides were simultaneously exposed to bacteria and phosphate-containing medium.
(§3) 1.3 MIC (minimum inhibitory concentration) assay
(§4) Antimicrobial activity was measured by a minimal inhibitory concentration (MIC) assay, carried out with Gram-positive Bacillus subtilis (DSM 347) and Staphylococcus xylosus (DSM 20287) and with Gram-negative Escherichia coli (DSM 1116) and Enterobacter helvet-icus (DSM 18390). Bacteria were grown in Müller-Hinton medium at 37°C overnight. Bac-terial solutions with OD550 = 0.2 was further diluted 1:100 for Gram-positive and 1:1000 for Gram-negative bacteria to get a concentration of […] colony forming units (CFU)/mL. Mi-crotiter plates (96 wells of 100 μL) were filled peptide solution to obtain serial 2-fold dilu-tion series of peptides. 50 µL of pure water was first added to each well. To the first well 50 µL peptide solution was added, after mixing 50 µL of this was transferred to the second well and so on. After all plates were prepared, 50 µL bacterial solution in double-concen-tration MHM was added to the wells (except for the final row of each plate) to give a final concentration of 5 × 10^5 CFU/mL in the wells. Thus, peptides got in contact with phosphate and bacteria simultaneously. […]
(§5) gregate stronlgy in contact with the phosphate containing growth medium. The two final rows of each plate remained without peptide, so that the penultimate data point served as the positive co ntrol (no peptide), and the final one as the negative control (not inoculated). The plates were incubated at 37°C for 20 h, and cell viability was probed by addition of 20 µL 0.2 mg/mL resazurin and incubation at 37°C for 2 h. The MIC value was determined visually as the lowest peptide concentration inhibiting bacterial growth. […]
(§6) Unencapsulated dye was removed by gel filtration using spin columns filled with Sephacryl 100-HR (Sigma-Aldrich, Taufkirchen, Germany), and equilibrated with an elu-tion buffer (150 mM NaCl, 10 mM HEPES, pH 7.5), which balances the internal vesicle

[2] = tested on: Staphylococcus xylosus (DSM 20287); type: cell-based
Description: as §1, §2, §3, §4, §5, §6

[3] = tested on: Bacillus subtilis (DSM 347); type: cell-based
Description: as §1, §2, §3, §4, §5, §6

[4] = tested on: Escherichia coli (DSM 1116); type: cell-based
Description: as §1, §2, §3, §4, §5, §6

[5] = tested on: erythrocytes; experiment: Hemolysis assay; type: cell-based
[6] = tested on: four bacterial strains; details: earlier study; ref [15]; cited from earlier work
Source text: (§7) Many natural and man-made AMPs are cationic and fold into simple amphiphilic α-helices. Much fewer examples exist of another fundamental type of secondary structure, namely amphiphilic β-strands. A classic model sequence, [KIGAKI]3-NH2, had been designed from alternating polar and hydrophobic side chains. Recently, we presented an even simpler group of so-called KL peptides, consisting of the alternating (lysine-leucine) dipeptide repeat: [KL]n-NH2. Recently, four KLx peptides of different lengths (x = number of residues, x = 2n) with 6–18 amino acids were compared in terms of ...

[7] = tested on: four bacterial strains; experiment: MIC assay, overall statement for the four strains; type: cell-based, E. coli, E. helveticus, B. subtilis, S. xylosus; details: modified MIC assay
Description: as §1
The activity of KL and LK peptides against bacteria was examined using a MIC assay. […] We have previously shown that KL peptides, especially the longer ones, aggregate vigorously in the presence of phosphate ions. […] Therefore, here we used a modified MIC assay that was developed in our previous study, as described in the Methods section. […]
Antimicrobial activity was measured by a minimal inhibitory concentration (MIC) assay, carried out with Gram-positive Bacillus subtilis (DSM 347) and Staphylococcus xylosus (DSM 20287) and with Gram-negative Escherichia coli (DSM 1116) and Enterobacter helvet-icus (DSM 18390). […]
gregate stronlgy in contact with the phosphate containing growth medium. […] The MIC value was determined visually as the lowest peptide concentration inhibiting bacterial growth. […]

[8] = tested on: erythrocytes; details: cited from earlier work
Source text: as §7

[9] = Gram-negative, modified MIC: 2-fold dilution series of peptide in water, then bacteria in double-concentration Müller-Hinton medium, 5 × 10^5 CFU/mL, 37°C 20 h, resazurin, visual
[10] = Gram-positive, modified MIC: 2-fold dilution series of peptide in water, then bacteria in double-concentration Müller-Hinton medium, 5 × 10^5 CFU/mL, 37°C 20 h, resazurin, visual

Substance | MIC E. helveticus ([1]; DSM 18390, 20 h) | MIC S. xylosus ([2]; DSM 20287, 20 h) | MIC B. subtilis ([3]; DSM 347, 20 h) | MIC E. coli ([4]; DSM 1116, 20 h) | Hemolysis HC50 (concentration of peptide giving 50% hemolysis) ([5]; 20 h) | other results
KLKLKLKLKLKLKLK-NH2 [KL15] | 2 mg/L | 2 mg/L | 4 mg/L | 8 mg/L | 2 µg/mL | –
KLKLKLKLKL-NH2 [KL10] | 2 mg/L | 2 mg/L | 2 mg/L | 4 mg/L | 47 µg/mL | Hemolytic activity (in words) [5]: considerably more hemolytic than LK10; Antimicrobial effect (in words) [6]: better antimicrobial effect than KL6, KL14 or KL18; Antimicrobial activity (in words) [7]: highest activity
KLKLKLKLKLKLKLKLKLKLKLKLKL-NH2 [KL26] | – | – | – | – | – | MIC E. helveticus [1, 9]: 16 mg/L; MIC S. xylosus [2, 10]: 16 mg/L; MIC B. subtilis [3, 10]: 32 mg/L; MIC E. coli [4, 9]: 64 mg/L; Hemolysis HC50 (concentration of peptide giving 50% hemolysis) ([5]; interpolated from concentration-dependent curves, washed erythrocytes of healthy donors, 37°C 30 min, absorbance 540 nm, 100% = 1% Triton X-100): <1 µg/mL; Hemolysis ([5]; peptide 1 µg/mL, erythrocytes of healthy donors, 37°C 30 min, A540, relative to Triton-X 100%, average of three absorbance measurements): 52%; Hemolysis ([5]; peptide 2 µg/mL, erythrocytes of healthy donors, 37°C 30 min, A540, relative to Triton-X 100%, average of three absorbance measurements): 71%; Hemolysis ([5]; peptide 4 µg/mL, erythrocytes of healthy donors, 37°C 30 min, A540, relative to Triton-X 100%, average of three absorbance measurements): 72%; Hemolysis ([5]; peptide 8 µg/mL, erythrocytes of healthy donors, 37°C 30 min, A540, relative to Triton-X 100%, average of three absorbance measurements): 72%; Hemolysis ([5]; peptide 16 µg/mL, erythrocytes of healthy donors, 37°C 30 min, A540, relative to Triton-X 100%, average of three absorbance measurements): 56%; Hemolysis ([5]; peptide 32 µg/mL, erythrocytes of healthy donors, 37°C 30 min, A540, relative to Triton-X 100%, average of three absorbance measurements): 50%; Hemolysis ([5]; peptide 64 µg/mL, erythrocytes of healthy donors, 37°C 30 min, A540, relative to Triton-X 100%, average of three absorbance measurements): 47%; Hemolysis ([5]; peptide 128 µg/mL, erythrocytes of healthy donors, 37°C 30 min, A540, relative to Triton-X 100%, average of three absorbance measurements): 42%; Hemolysis ([5]; peptide 256 µg/mL, erythrocytes of healthy donors, 37°C 30 min, A540, relative to Triton-X 100%, average of three absorbance measurements): 39%
LKLKLKLKLKLKL-NH2 [LK13] | 4 mg/L | 4 mg/L | 8 mg/L | 8 mg/L | 2 µg/mL | –
LKLKLKLKLKL-NH2 [LK11] | 1 mg/L | 1 mg/L | 2 mg/L | 2 mg/L | 3 µg/mL | –
KLKLKLKLKLKLKLKL-NH2 [KL16] | 8 mg/L | 8 mg/L | 16 mg/L | 32 mg/L | 2 µg/mL | –
KLKLKLKLKLK-NH2 [KL11] | 2 mg/L | 1 mg/L | 4 mg/L | 4 mg/L | >256 µg/mL | Hemolytic activity (in words) [5]: very low hemolytic activity
KLKLKL-NH2 [KL6] | 128 mg/L | 256 mg/L | >256 mg/L | >256 mg/L | >256 µg/mL | Hemolytic activity (in words) [5]: very low hemolytic activity
KLKLKLKLKLKLKLKLKLKL-NH2 [KL20] | 32 mg/L | 16 mg/L | 32 mg/L | 32 mg/L | <1 µg/mL | –
KLKLKLKLKLKL-NH2 [KL12] | 2 mg/L | 2 mg/L | 2 mg/L | 2 mg/L | 8 µg/mL | –
KLKLKLKL-NH2 [KL8] | 16 mg/L | 8 mg/L | 16 mg/L | 64 mg/L | >256 µg/mL | Hemolytic activity (in words) [5]: very low hemolytic activity
LKLKLKLKL-NH2 [LK9] | 4 mg/L | 2 mg/L | 4 mg/L | 16 mg/L | 145 µg/mL | –
KLKLKLKLKLKLKL-NH2 [KL14] | 4 mg/L | 4 mg/L | 4 mg/L | 8 mg/L | 1 µg/mL | Hemolytic activity (in words) [8]: highly hemolytic
KLKLKLKLKLKLKLKLKLKLKLKL-NH2 [KL24] | 16 mg/L | 8 mg/L | 32 mg/L | 32 mg/L | <1 µg/mL | –
KLKLKLKLKLKLKLKLKL-NH2 [KL18] | 16 mg/L | 8 mg/L | 32 mg/L | 32 mg/L | 1 µg/mL | Hemolytic activity (in words) [8]: highly hemolytic
KLKLKLKLK-NH2 [KL9] | 8 mg/L | 2 mg/L | 16 mg/L | 32 mg/L | >256 µg/mL | Hemolysis ([5]; 20 h, 1 µg/mL): 5%; Hemolysis ([5]; 20 h, 2 µg/mL): 6%; Hemolysis ([5]; 20 h, 4 µg/mL): 8%; Hemolysis ([5]; 20 h, 8 µg/mL): 9%; Hemolysis ([5]; 20 h, 16 µg/mL): 9%; Hemolysis ([5]; 20 h, 32 µg/mL): 11%; Hemolysis ([5]; 20 h, 64 µg/mL): 14%; Hemolysis ([5]; 20 h, 128 µg/mL): 18%; Hemolysis ([5]; 20 h, 256 µg/mL): 20%; Hemolytic activity (in words) ([5]; erythrocytes, 37°C 30 min): very low hemolytic activity
KLKLKLKLKLKLK-NH2 [KL13] | 1 mg/L | 1 mg/L | 2 mg/L | 2 mg/L | 9 µg/mL | –
KLKLKLKLKLKLKLKLKLKLKL-NH2 [KL22] | 32 mg/L | 16 mg/L | 32 mg/L | 32 mg/L | <1 µg/mL | –
LKLKLKLKLK-NH2 [LK10] | 2 mg/L | 1 mg/L | 4 mg/L | 8 mg/L | 256 µg/mL | –
LKLKLKLKLKLKLKL-NH2 [LK15] | 16 mg/L | 16 mg/L | 16 mg/L | 64 mg/L | <1 µg/mL | –
